The values below come from US20040214192A1, “Methods of testing for allergic diseases and therapeutic agents for treating same” (Genox Research, Inc., priority 2002, published 2004).

For assay [1], the target named is T1, full-length NOR-1 (MINOR) (Homo sapiens, UniProt Q92570).
T1 construct: Full length Nor1-; expressed in transfected cells; host or cells: NIH3T3
Nature of the assay: Mammalian Two Hybrid luciferase reporter, GAL4-full-length Nor1 construct. Format: cell-based. To be noted: for Full length Nor1-ligand activity RXR(+) / Full length Nor1-ligand activity RXR(−): NIH3T3 cells, luciferase; for Full length Nor1-ligand activity RXR(+): with RXRα; for function of enhancing the transcriptional activation ability of NOR-1 (MINOR): luciferase reporter system; for Full length Nor1-ligand activity RXR(−): without RXRα. Here is the method: A full-length gene or the ligand-binding site of NOR-1 is inserted into X, and the full-length gene of the retinoic acid X receptor (RXR)α is inserted into Y. These constructs are transfected into NIH3T3 cells, and the activity of induced luciferase is measured.
Mammalian Two Hybrid system was slightly modified. […] Actually, activity could not be detected for lipid-soluble metabolites existing on the metabolic map of mammals that might be natural ligands of NOR-1 in a screening system wherein only the ligand-binding domain was inserted. A plasmid wherein the full-length gene of NOR-1 (MINOR) had been inserted into pBIND and a luciferase reporter plasmid containing a GAL4 binding site were cotransfected into NIH3T3 cells, and the luciferase activity was measured automatically. By further addition of small molecule substances to this system enables screening of ligands by their transcription enhancing activity.
NOR-1 (MINOR) expression is induced under conditions where the leukocytes are hyperactive, such as in atopic dermatitis peripheral blood, and apoptosis of cells is very likely to occur as a result of this induced NOR-1 (MINOR) expression. Ligands existing in vivo may exist at sites where nuclear receptors are highly expressed. Therefore, small-molecule lipid-soluble mediators that are expected to be produced under such conditions were added to the assay system as candidate ligands to evaluate their luciferase activity enhancing function. […] Thus, the method established by the present inventors opened a way to discover native ligands and synthetic ligands of NOR-1 (MINOR) by high throughput.
A general note: A reporter such as luciferase makes a cellular process visible.

Another assay has as its target T2, LBD of Nor1 (Homo sapiens, UniProt Q92570).
T2 construct: GST-LBD of Nor1 was expressed in E. coli and purified; GST (N); made in house; host or cells: E. coli
T2 sequence (Q92570 394-623 limits assumed): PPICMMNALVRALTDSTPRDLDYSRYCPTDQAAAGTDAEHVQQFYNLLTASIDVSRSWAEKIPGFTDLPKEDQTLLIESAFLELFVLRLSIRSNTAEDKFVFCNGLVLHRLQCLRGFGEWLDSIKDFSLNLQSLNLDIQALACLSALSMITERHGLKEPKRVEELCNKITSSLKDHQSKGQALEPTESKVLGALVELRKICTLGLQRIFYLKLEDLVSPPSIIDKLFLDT
The assay can be described thus: BIAcor S51 binding to GST-LBD of Nor1. Particulars: BIAcor S51, comparison with GST. From the text:
Glutathione S-transferase (GST) was used as a comparison control and 13,14-Dihydro-15-keto-PGA2 as a negative control.
In the present invention, as a means for detecting or measuring bound compound, a biosensor utilizing surface plasmon resonance phenomenon may be used. A biosensor (for example, BIAcore, Pharmacia) utilizing the surface plasmon resonance phenomenon allows real-time observation of the interaction between the NOR-1 protein and a test compound as a surface plasmon resonance signal. Therefore, using biosensors such as BIAcore, the binding between the NOR-1 protein and the test compound can be evaluated.

For assay [2], the system named is Nor1 gene that completely lacked the LBD region (ΔLBD). The assay can be described thus: Mammalian Two Hybrid reporter with LBD deletion mutant of Nor1. Format: cell-based, human. To be noted: Nor1 lacking the LBD region. An excerpt: Therefore, prostaglandin A2 was implicated to function by actually acting on the LBD region of the nuclear receptor.
In assay [3] the test system is Nor1 expression in peripheral blood eosinophils. The assay can be described thus: Nor1 expression induction in cultured peripheral blood eosinophils. Type of assay: cell-based, human. To be noted: cultured peripheral blood eosinophils from healthy subjects. From the text: Values collected for beta-actin and GAPDH are shown.
A large amount of peripheral blood eosinophils were collected from healthy subjects, and cultured in suspension in a petri dish while suppressing their activation. […] The anti-CD30 antibody that has an agonistic activity against eosinophilic CD30 has recently been receiving attention, because it induces apoptosis of eosinophils via a specific intracellular pathway and may serve as a therapeutic agent for asthma.
Thus, the apoptosis by anti-CD30 antibody accompanied by induction of Nor1 may occur through an eosinophil-specific apoptosis pathway that is different from the conventional pathway.

T1 sequence (Q92570 whole entry): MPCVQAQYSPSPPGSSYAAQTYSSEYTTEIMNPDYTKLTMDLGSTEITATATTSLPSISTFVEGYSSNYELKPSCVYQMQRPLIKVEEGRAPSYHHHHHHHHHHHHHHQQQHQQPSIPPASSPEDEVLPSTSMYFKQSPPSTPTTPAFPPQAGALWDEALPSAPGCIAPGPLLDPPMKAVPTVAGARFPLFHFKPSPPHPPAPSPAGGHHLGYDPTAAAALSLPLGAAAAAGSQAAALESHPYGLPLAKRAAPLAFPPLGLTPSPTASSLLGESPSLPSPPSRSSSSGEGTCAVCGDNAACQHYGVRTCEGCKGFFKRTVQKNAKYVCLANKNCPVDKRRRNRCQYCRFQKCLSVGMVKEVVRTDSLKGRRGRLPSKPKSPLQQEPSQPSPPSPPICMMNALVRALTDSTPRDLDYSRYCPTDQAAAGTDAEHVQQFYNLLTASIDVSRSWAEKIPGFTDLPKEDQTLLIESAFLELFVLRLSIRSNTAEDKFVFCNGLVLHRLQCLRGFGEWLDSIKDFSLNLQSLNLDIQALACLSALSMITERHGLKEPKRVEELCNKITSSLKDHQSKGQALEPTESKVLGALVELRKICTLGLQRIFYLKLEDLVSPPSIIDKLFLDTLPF

Regarding `CCCCC[C@H](O)/C=C/[C@H]1C=CC(=O)[C@H]1CCCCCCC(=O)O` [8-iso Prostaglandin A1], the “Full length Nor1-ligand activity RXR(+)” value in assay [1] is 10 µM; in assay [1] (symbol) it was “∘”.
`CCCCCC(=O)CC[C@H]1C=CC(=O)[C@@H]1C/C=C\CCCC(=O)O` [13,14-dihydro-15-keto Prostaglandin A2]: in assay [1], the “function of enhancing the transcriptional activation ability of NOR-1 (MINOR)” value (“function” below) is on record as “did not show any activity in the reporter system”. In addition, the “binding to the LBD of Nor1” value on LBD of Nor1 is reported as “did not bind to LBD”.
For `CCCCC[C@@](C)(O)/C=C/[C@H]1C=CC(=O)[C@@H]1C/C=C\CCCC(=O)O` [15(R)-15-methyl Prostaglandin A2], in assay [1], the “Full length Nor1-ligand activity RXR(+)” value was determined as 10 µM, the “Full length Nor1-ligand activity RXR(−)” value came out at 10 µM and the “function” value is “enhancing the transcriptional activation ability of NOR-1 (MINOR)”. Besides, in assay [1] (symbol), the “Full length Nor1-ligand activity RXR(+)” value is recorded as “∘” and the “Full length Nor1-ligand activity RXR(−)” value is recorded as “∘”.
`CCCCC/C=C\C=C1\C(=O)C=C[C@@H]1C/C=C\CCCC(=O)O` [15-dioxy-Δ^12,14-Prostaglandin J2]: the “Full length Nor1-ligand activity RXR(+)” value in assay [1] was 10 µM; in assay [1] (symbol), “∘”.
As to `CCCCC(C)(C)[C@H](O)/C=C/[C@H]1C=CC(=O)[C@@H]1C/C=C\CCCC(=O)O` [16,16-dimethyl Prostaglandin A2], in assay [1], the “Full length Nor1-ligand activity RXR(+)” value is 5 µM and the “Full length Nor1-ligand activity RXR(−)” value worked out at 5 µM. Also, in assay [1] (symbol), the “Full length Nor1-ligand activity RXR(+)” value was “∘” and the “Full length Nor1-ligand activity RXR(−)” value is on record as “∘”.
For `O=C(O)CCC/C=C\C[C@H]1C(=O)C=C[C@@H]1/C=C/[C@@H](O)COc1ccccc1` [16-phenoxy tetranor Prostaglandin A2], in assay [1], the “Full length Nor1-ligand activity RXR(+)” value is 30 µM, the “Full length Nor1-ligand activity RXR(−)” value is 30 µM and the “function” value is “enhancing the transcriptional activation ability of NOR-1 (MINOR)”. Also, in assay [1] (symbol), the “Full length Nor1-ligand activity RXR(+)” value was “∘” and the “Full length Nor1-ligand activity RXR(−)” value is recorded as “∘”.
Take `O=C(O)CCC/C=C\C[C@H]1C(=O)C=C[C@@H]1/C=C/[C@@H](O)CCc1ccccc1` [17-phenyl trinor Prostaglandin A2]: in assay [1], the “Full length Nor1-ligand activity RXR(+)” value turned out to be 10 µM, the “Full length Nor1-ligand activity RXR(−)” value was 10 µM and the “function” value is “enhancing the transcriptional activation ability of NOR-1 (MINOR)”. In assay [1] (symbol), the “Full length Nor1-ligand activity RXR(+)” value is “∘” and the “Full length Nor1-ligand activity RXR(−)” value is on record as “∘”.
Take `CCCCC[C@H](O)/C=C/[C@H]1C=CC(=O)[C@@H]1CCCCCCC(=O)O` [Prostaglandin A1]: in assay [1], the “Full length Nor1-ligand activity RXR(+)” value was 10 µM, the “Full length Nor1-ligand activity RXR(−)” value was 10 µM and the “function” value is reported as “enhancing the transcriptional activation ability of NOR-1 (MINOR)”. Besides, in assay [1] (symbol), the “Full length Nor1-ligand activity RXR(+)” value is “∘” and the “Full length Nor1-ligand activity RXR(−)” value is recorded as “∘”. Besides, on LBD of Nor1, the “binding to the LBD of Nor1” value is “binding of PGA1 and PGA2 to the LBD of Nor1 was detected”.
For `CCCCC[C@H](O)/C=C/[C@H]1C=CC(=O)[C@@H]1C/C=C\CCCC(=O)O` [Prostaglandin A2], in assay [2], the “transcriptional activity with LBD deletion mutant” value is on record as “remarkable suppression of the transcriptional activity”. Moreover, in assay [1], the “Full length Nor1-ligand activity RXR(+)” value came out at 10 µM, the “Full length Nor1-ligand activity RXR(−)” value came to 10 µM and the “function” value was “enhancing the transcriptional activation ability of NOR-1 (MINOR)”. Further, in assay [1] (symbol), the “Full length Nor1-ligand activity RXR(+)” value was “∘” and the “Full length Nor1-ligand activity RXR(−)” value is on record as “∘”. Further, the “binding to the LBD of Nor1” value on LBD of Nor1 is “binding of PGA1 and PGA2 to the LBD of Nor1 was detected”.
Turning to “IL-5: cytokine used to activate eosinophils”, in assay [3], the “induction of Nor1” value was “did not lead to the induction of Nor1”.

B1: IL-4: cytokine used to activate eosinophils (protein, UniProt P05112 25-153, looked up)
Interleukin-4: HKCDITLQEIIKTLNSLTEQKTLCTELTVTDIFAASKNTTEKETFCRAATVLRQFYSHHEKDTRCLGATAQQFHRHKQLIRFLKRLDRNLWGLAGLNSCPVKEANQSTLENFLERLKTIMREKYSKCSS
Turning to B1, in assay [3], the “induction of Nor1” value was “did not lead to the induction of Nor1”.
